Several values for one entry are separate records, joined by “and”; a condition that tells them apart may be missing. Equal entries are not always repeated.
Tests used:
luciferase = biological target: T1, luciferase (Photinus pyralis, UniProt P08659); assay: Luciferase enzymatic assay; type: biochemical; conditions: lysate of HEK293T cells expressing CRE-Luc, 30 min
T1 construct: expressed in transfected cells; host or cells: HEK293T (lysate incubated with compound)
Experimental: HEK293T cells (4 × 10^5 per well of 24-well-plate) were transfected with plasmids expressing CRE-luciferase reporter (50 ng) together with RSV-β-gal (20 ng) by PEI-media overnight and induced by FSK (forskolin 10 nM) for 6-h. The cells were then collected in the lysis buffer (25 mM Gly-gly, 15 mM MgSO4, 4 mM EGTA, 1% V/V Triton X-100, 1 mM DTT, pH 7.8), mixed with an equal volume of luciferase substrate buffer (25 mM Gly-gly, 15 mM MgSO4, 4 mM EGTA, 250 mM potassium phosphate, 2.5 mM ATP, 2 mM DTT, 5 mg/mL luciferin, pH 7.8), and subjected to EnVision Multimode Plate Reader (Perkin/Elmer) to determine generated fluorescent signals.
13 d) Luciferase enzyme activity. The luciferase enzymatic activity from HEK293T cells incubated
The cells ectopically expressed luciferase (CRE-Luc) and were stimulated with FSK (10
15 nM) for 5 h before lysis, and then incubated with various concentrations of propolis for 30 min before
16 luciferase activity determination. One of two independent experiments presented here. Data are
17 represented as mean ± SEM (n=3 per treatment). ns, p > 0.05; *, p < 0.05; **, p < 0.01; p values were
18 determined by one-way ANOVA followed Dunnett’s multiple comparisons test.
13 f) The luciferase enzymatic activity of HEK293T incubated with APC. Cells over-expressed […]
17 determined by one-way ANOVA followed Dunnett’s multiple comparisons test.

[1] = system: promoter occupancy in primary hepatocytes; assay: ChIP assays; type: cell-based, mouse; conditions: for ChIP: CBP, CRE-PGC1a, mean / ChIP: CBP, CRE-Pck1, mean: N=4
mouse Lxra promoter = assay: Truncated Lxra-LUC reporter in HEK293T; type: cell-based; conditions: for Relative luciferase reporter activity of mouse LXRa promotor deletion series, group mean (Mean 2) / Relative luciferase reporter activity of mouse LXRa promotor deletion series, group mean (Mean 1) / Relative luciferase reporter activity of mouse LXRa promotor deletion series: APC 10uM; for Relative luciferase reporter activity of mouse LXRa promotor deletion series: individual replicates
Experimental: Fig. 7 APC inhibits SREBP1 expression via the CRE-LXRα-LXRE axis. a Quantitative PCR analysis of hepatic expressions of Lxra, Ppra, Pprg, Rxra in DIO mice, which were continuously i.p. injected with control vehicle (VEH) or APC (20 mg/kg) with indicated doses one time daily for 5 weeks (n = 6 per group). One of two independent experiments is shown here. Data are represented as mean ± SEM. *P < 0.05; **P < 0.01; P values were determined by two-way ANOVA followed Bonferroni’s multiple comparisons test. b Immunoblotting analysis of hepatic LXRα and premature SREBP1 protein levels in the livers of DIO mice injected APC for 5 weeks as (a). One of three independent experiments is shown here (left). The relative protein of LXRα, SREBP1, and PPARα normalized by GAPDH is shown as a bar graph (right) (n = 3). Data are represented as mean ± SEM. *P < 0.05; **P < 0.01; P values were determined by two-way ANOVA followed Bonferroni’s multiple comparisons test. c CHIP analysis LXRa and RXRa recruited to the promoter of the mouse Srebf1 (top) gene in primary hepatocytes from wild C57 mice and pretreated APC (10 μM) for 1-h (bottom) (n = 4 per treatment). One of three independent experiments presented here. Data are represented as mean ± SEM. *P < 0.05; **P < 0.01; P values were determined by two-way ANOVA followed Bonferroni multiple comparisons test. d CHIP analysis of CREB and CRTC2 occupancy over the half CRE sites in the Lxra promoter (Top) in primary mouse hepatocytes overexpressing CRTC2, pretreated with APC (10 μM) for 1-h prior to 1-h glucagon stimulation (Gluc, 100 nM) (bottom) (n = 4 per treatment). One of three independent experiments presented here. Data are represented as mean ± SEM. *P < 0.05; **P < 0.01; P values were determined by two-way ANOVA followed Bonferroni’s multiple comparisons test. e Reporter activity of truncated Lxra-LUC reporter. The luciferase reporter was driven by mouse Lxra promoter (−1342) or truncations (−784 and −178) co-transfected with MYC-Creb and FLAG-Crtc2-S171A in HEK293T cells, and pretreated with APC prior to stimulation with FSK (10 nM) for 4-h (n = 3 per treatment). One of three independent experiments presented here. Data are represented as mean ± SEM. *P < 0.05; **P < 0.01; P values were determined by two-way ANOVA followed Bonferroni’s multiple comparisons test. f Quantitative PCR analysis of the expression of CRTC2, Lxra, Srebf-1c, and Srebf-2, in primary hepatocytes, which were infected by LV-Crtc2-S171A or control and incubated with APC (10 μM) for 8-h (n = 3 per treatment). One of three independent experiments presented here. Data are represented as mean ± SEM. *P < 0.05; **P < 0.01; P values were determined by two-way ANOVA followed Bonferroni’s multiple comparisons test. g Quantitative PCR analysis of Lxra gene expression in the liver of CRTC2-KO mice. Be induced by high-fat diet for 8 weeks, with Crtc2-KO mice and wild-type littermates administered VEH (vehicle control), MET (metformin, 200 mg/kg), or APC (20 mg/kg) for 3 weeks, followed by fasting 8-h before anesthesia (n = 5 per group). Data are represented as mean ± SEM. *P < 0.05; **P < 0.01; P values of Crtc2 gene were determined by unpaired two-tailed t test with Welch’s correction, and P values of Lxra gene were determined by two-way ANOVA followed Bonferroni’s multiple comparisons test. h Immunoblotting analysis of LXRα protein in the liver of these mice as in (g). One of two independent experiments is presented here (top), and the relative concentration of LXRα normalized to ACTIN is shown as a bar graph (bottom). (n = 5 mice per group, two technological repeats represent a composite pool). Data are represented as mean ± SEM. *P < 0.05; **P < 0.01; P values were determined by two-way ANOVA followed Bonferroni’s multiple comparison test. Source data for this figure are provided as source data file.

[2] = mean over Gluc0, Gluc30, Gluc60
[3] = primary hepatocytes exposed to glucagon, APC 10 μM

T1 sequence (P08659 whole entry): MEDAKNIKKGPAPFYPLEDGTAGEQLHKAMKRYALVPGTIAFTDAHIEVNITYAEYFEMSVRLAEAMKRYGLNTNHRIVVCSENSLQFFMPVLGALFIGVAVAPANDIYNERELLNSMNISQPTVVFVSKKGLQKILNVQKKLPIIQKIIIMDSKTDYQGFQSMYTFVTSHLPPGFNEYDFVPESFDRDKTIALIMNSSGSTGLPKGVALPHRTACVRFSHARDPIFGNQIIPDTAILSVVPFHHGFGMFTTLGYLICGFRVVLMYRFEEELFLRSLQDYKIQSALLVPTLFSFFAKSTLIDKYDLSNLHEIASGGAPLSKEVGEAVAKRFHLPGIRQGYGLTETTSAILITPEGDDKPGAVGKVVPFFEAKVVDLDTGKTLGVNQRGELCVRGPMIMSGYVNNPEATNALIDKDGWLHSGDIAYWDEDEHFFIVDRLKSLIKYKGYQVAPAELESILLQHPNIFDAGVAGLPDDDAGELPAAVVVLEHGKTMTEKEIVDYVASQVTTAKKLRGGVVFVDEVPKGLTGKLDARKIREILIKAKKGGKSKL

In the case of `CC(C)=CCc1cc(C=CC(=O)O)cc(CC=C(C)C)c1O` [APC, 3,5-diprenyl-4-hydroxycinnamic acid], the “effect on luciferase enzymatic activity” value (luciferase) is reported as “no effect”, the “ChIP CREB in LXRa promoter, Input %” value ([1]; ChIP-CREB, LXRa promoter, individual replicates, n=4) is reported as 48.6099 Input % and 36.4614 Input % and 38.9243 Input % and 32.1584 Input % and the “ChIP CREB in LXRa promoter, group mean (Mean 1)” value ([1]; ChIP-CREB, LXRa promoter, mean of N=4) is reported as 39.04 Input %. For the same molecule, the “ChIP CRTC2 in LXRa promoter, Input %” value ([1]; ChIP-CRTC2, LXRa promoter, individual replicates, n=4) was 91.9916 Input % and 76.2395 Input % and 65.9044 Input % and 83.3167 Input %, the “ChIP CRTC2 in LXRa promoter, group mean (Mean 1)” value ([1]; ChIP-CRTC2, LXRa promoter, mean of N=4) was 79.36 Input % and the “ChIP-IgG in LXRa promoter, Input %” value ([1]; ChIP-IgG (control antibody), LXRa promoter, individual replicates, n=4) was 0.8383 Input % and 0.5702 Input % and 0.8279 Input % and 1.761 Input %. For the same molecule, the “ChIP-IgG in LXRa promoter, group mean (Mean 1)” value ([1]; ChIP-IgG (control antibody), LXRa promoter, mean of N=4) was 0.9995 Input %, the “ChIP: LXRa recuited in Srebf1 promoter, relative enrichment folds, group mean (Mean 1)” value ([1]; ChIP-LXRa, Srebf1 promoter, mean of N=4) was 0.4914 fold and the “ChIP: RXRa recuited in Srebf1 promoter, relative enrichment folds, group mean (Mean 1)” value ([1]; ChIP-RXRa, Srebf1 promoter, mean of N=4) was 0.5838 fold. The “ChIP: LXRa recuited in Srebf1 promoter, relative enrichment folds” value ([1]; ChIP:LXRa, Srebf1 promoter, individual replicates, n=4) was 0.5482 fold and 0.5209 fold and 0.4024 fold and 0.494 fold, the “ChIP: RXRa recuited in Srebf1 promoter, relative enrichment folds” value ([1]; ChIP:RXRa, Srebf1 promoter, individual replicates, n=4) was 0.4207 fold and 0.6691 fold and 0.5173 fold and 0.7279 fold and the “ChIP: CBP, CRE-PGC1a, mean” value ([1]; Gluc0) was 0.891. For the same molecule, the “ChIP: CBP, CRE-Pck1, mean” value ([1]; Gluc0) was 0.921, the “ChIP: CBP, CRE-PGC1a, mean” value ([1]; Gluc30) was 0.574 and the “ChIP: CBP, CRE-Pck1, mean” value ([1]; Gluc30) was 0.749. For the same molecule, the “ChIP: CBP, CRE-PGC1a, mean” value ([1]; Gluc60) was 0.582, the “ChIP: CBP, CRE-Pck1, mean” value ([1]; Gluc60) was 0.834 and the “Mean of APC_ChIP: CBP, CRE-G6pc” value [1, 2] was 1.496. For the same molecule, the “Mean of ChIP: CBP & APC, CRE-Pck1” value [1, 2] was 0.835, the “Mean of ChIP: CBP & APC, CRE-Pgc-1a” value [1, 2] was 0.682 and the “CRTC2 recruited to CRE sites of G6pc, Pgc-1α and Pck1 promoters (ChIP)” value [1, 3] was “significantly attenuated”. The “occupancy of CREB or CBP at CRE sites (ChIP)” value [1, 3] was “little effect”, the “LXRα and RXRα recruited to LXRE element of Srebf1 promoter (ChIP)” value ([1]; primary hepatocytes, APC 10 μM) was “reduced” and the “occupancy of CRTC2 on half CRE site of Lxrα promoter (ChIP)” value ([1]; primary hepatocytes, glucagon, APC 10 μM) was “attenuated”. The “Relative luciferase reporter activity of mouse LXRa promotor deletion series, group mean (Mean 2)” value (“Relative luciferase reporter activity … (Mean 2)” below) (mouse Lxra promoter; -178, CREB/CRTC2-S171A +, Ctrl (no FSK), mean of N=3) was 80.85, the “Relative luciferase reporter activity of mouse LXRa promotor deletion series, group mean (Mean 1)” value (from here on “Relative luciferase reporter activity … (Mean 1)”) (mouse Lxra promoter; -178, CREB/CRTC2-S171A +, FSK, mean of N=3) was 101.4 and the “Lxra-LUC reporter activity, Mean” value (mouse Lxra promoter; -178 construct, Ctrl (no FSK), mean of N=3, -1342_Ctrl = 100) was 80.85. The “Lxra-LUC reporter activity, Mean” value (mouse Lxra promoter; -178 construct, FSK, mean of N=3, -178_Ctrl with FSK = 80.5) was 101.4, the “Relative luciferase reporter activity … (Mean 2)” value (mouse Lxra promoter; -784, CREB/CRTC2-S171A +, Ctrl (no FSK), mean of N=3) was 65.74 and the “Relative luciferase reporter activity … (Mean 1)” value (mouse Lxra promoter; -784, CREB/CRTC2-S171A +, FSK, mean of N=3) was 80.88. The “Lxra-LUC reporter activity, Mean” value (mouse Lxra promoter; -784 construct, Ctrl (no FSK), mean of N=3, -1342_Ctrl = 100) was 65.74, the “Lxra-LUC reporter activity, Mean” value (mouse Lxra promoter; -784 construct, FSK, mean of N=3, -784_Ctrl with FSK = 84.79) was 80.88 and the “Relative luciferase reporter activity … (Mean 2)” value (mouse Lxra promoter; -1342, CREB/CRTC2-S171A +, Ctrl (no FSK), mean of N=3) was 120.4. The “Relative luciferase reporter activity … (Mean 1)” value (mouse Lxra promoter; -1342, CREB/CRTC2-S171A +, FSK, mean of N=3) was 140.5, the “Lxra-LUC reporter activity, Mean” value (mouse Lxra promoter; -1342 construct, Ctrl (no FSK), mean of N=3, -1342_Ctrl = 100) was 120.4 and the “Lxra-LUC reporter activity, Mean” value (mouse Lxra promoter; -1342 construct, FSK, mean of N=3, -1342_Ctrl with FSK = 265.7) was 140.5. For the same molecule, the Lxrα-luc reporter activity (mouse Lxra promoter; HEK293T, FSK, attenuated when half CRE site −984 deleted) was “inhibition of Lxrα-luc reporter activity”, the “Relative luciferase reporter activity of mouse LXRa promotor deletion series” value (mouse Lxra promoter; mLXRa promoter region -178, CREB/CRTC2-S171A +, Ctrl (no FSK)) was 68.909 and the “Relative luciferase reporter activity of mouse LXRa promotor deletion series” value (mouse Lxra promoter; mLXRa promoter region -178, CREB/CRTC2-S171A +, Ctrl (no FSK), unstimulated control) was 81.477 and 92.1755. The “Relative luciferase reporter activity of mouse LXRa promotor deletion series” value (mouse Lxra promoter; mLXRa promoter region -178, CREB/CRTC2-S171A +, FSK, FSK stimulated) was 110.535 and 84.2634 and 109.449, the “Relative luciferase reporter activity of mouse LXRa promotor deletion series” value (mouse Lxra promoter; mLXRa promoter region -784, CREB/CRTC2-S171A +, Ctrl (no FSK)) was 58.3809 and the “Relative luciferase reporter activity of mouse LXRa promotor deletion series” value (mouse Lxra promoter; mLXRa promoter region -784, CREB/CRTC2-S171A +, Ctrl (no FSK), unstimulated control) was 73.0822 and 65.7554. For the same molecule, the “Relative luciferase reporter activity of mouse LXRa promotor deletion series” value (mouse Lxra promoter; mLXRa promoter region -784, CREB/CRTC2-S171A +, FSK, FSK stimulated) was 83.8052 and 88.4723 and 70.3736, the “Relative luciferase reporter activity of mouse LXRa promotor deletion series” value (mouse Lxra promoter; mLXRa promoter region -1342, CREB/CRTC2-S171A +, Ctrl (no FSK)) was 97.1063 and the “Relative luciferase reporter activity of mouse LXRa promotor deletion series” value (mouse Lxra promoter; mLXRa promoter region -1342, CREB/CRTC2-S171A +, Ctrl (no FSK), unstimulated control) was 135.223 and 128.99. The “Relative luciferase reporter activity of mouse LXRa promotor deletion series” value (mouse Lxra promoter; mLXRa promoter region -1342, CREB/CRTC2-S171A +, FSK, FSK stimulated) was 139.251 and 135.05 and 147.302.
